Reference: patent US11433072B1 (Hikma Pharmaceuticals USA Inc., priority 2021, dated 2022)
Read-outs that look alike come from different tables or passages of the source.

Assays:
[1] = cited from earlier work
[2] = acidic environment; data not shown

SMILES: C=CC(=O)N1CCC[C@@H](n2nc(-c3ccc(Oc4ccccc4)cc3)c3c(N)ncnc32)C1 [ibrutinib, 1-(3R)-3-(4-amino-3-(4-phenoxyphenyl)-1H-pyrazolo[3,4-d]pryimidin-1-yl)prop-2-en-1-one]
- Solubility ([1]; HCl at pH 1.2): slightly soluble
- Solubility ([1]; aqueous solutions of pH 4.5-8): practically insoluble
- Solubility [2]: higher in an acidic environment
